Source: patent US20250215029A1 (Recludix Pharma, Inc., priority 2022, published 2025)

Key:
[1] = biological target: T1, Recombinant STAT3 protein (STAT3 (G127-I722)) (Homo sapiens, UniProt P40763); test: STAT3 Fluorescence Polarization (FP) Assay; format: binding; details: STAT3 (G127-I722) 25 nM, probe 5-FAM-GpYLPQTV-NH2 2 nM, 45-minute incubation; read-out: STAT3 (FP assay IC50 class)
T1 construct: Recombinant STAT3 protein (STAT3 (G127-I722))
Summary of the method: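 Read-out is fluorescence polarization (mP) after 45 min at room temperature, with IC50 fitted by nonlinear regression against log compound concentration. Mixture: 25 nM STAT3 (G127-I722), 2 nM 5-FAM-GpYLPQTV-NH2 phosphopeptide, 10 mM HEPES pH 7.4 buffer, 1% DMSO.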

[2] = biological target: T2, Recombinant STAT6 protein (STAT6 (W123-T658)) (Homo sapiens, UniProt P42226); test: STAT6 Fluorescence Polarization (FP) Assay; format: binding; details: STAT6 (W123-T658) 250 nM, probe 5-FAM-Ap[…]-NH2 2 nM, 45-minute incubation; read-out: STAT6 (FP assay IC50 class)
T2 construct: Recombinant STAT6 protein (STAT6 (W123-T658))
T2 sequence (P42226 123-658): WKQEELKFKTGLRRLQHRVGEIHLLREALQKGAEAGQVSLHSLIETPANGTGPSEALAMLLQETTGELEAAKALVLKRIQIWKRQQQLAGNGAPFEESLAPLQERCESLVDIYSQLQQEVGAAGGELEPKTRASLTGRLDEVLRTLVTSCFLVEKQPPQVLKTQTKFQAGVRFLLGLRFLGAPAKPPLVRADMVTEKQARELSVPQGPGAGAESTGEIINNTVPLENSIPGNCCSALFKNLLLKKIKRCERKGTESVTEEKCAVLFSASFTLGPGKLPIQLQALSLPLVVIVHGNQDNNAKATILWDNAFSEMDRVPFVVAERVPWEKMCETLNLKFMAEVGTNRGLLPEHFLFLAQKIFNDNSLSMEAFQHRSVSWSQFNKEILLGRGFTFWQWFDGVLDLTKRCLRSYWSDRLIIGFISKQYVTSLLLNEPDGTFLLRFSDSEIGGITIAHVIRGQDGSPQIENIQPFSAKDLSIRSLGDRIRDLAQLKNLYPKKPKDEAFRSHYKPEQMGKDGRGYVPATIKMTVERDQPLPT
Summary of the method: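 Probe displacement format: serially diluted compounds incubated 45 min at room temperature with 2 nM fluorescent phosphopeptide and 250 nM STAT6 (W123-T658) in pH 7.4 HEPES buffer, 1% DMSO final. Polarization signal plotted against log concentration, IC50 fitted by nonlinear regression.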

T1 sequence (P40763 127-722): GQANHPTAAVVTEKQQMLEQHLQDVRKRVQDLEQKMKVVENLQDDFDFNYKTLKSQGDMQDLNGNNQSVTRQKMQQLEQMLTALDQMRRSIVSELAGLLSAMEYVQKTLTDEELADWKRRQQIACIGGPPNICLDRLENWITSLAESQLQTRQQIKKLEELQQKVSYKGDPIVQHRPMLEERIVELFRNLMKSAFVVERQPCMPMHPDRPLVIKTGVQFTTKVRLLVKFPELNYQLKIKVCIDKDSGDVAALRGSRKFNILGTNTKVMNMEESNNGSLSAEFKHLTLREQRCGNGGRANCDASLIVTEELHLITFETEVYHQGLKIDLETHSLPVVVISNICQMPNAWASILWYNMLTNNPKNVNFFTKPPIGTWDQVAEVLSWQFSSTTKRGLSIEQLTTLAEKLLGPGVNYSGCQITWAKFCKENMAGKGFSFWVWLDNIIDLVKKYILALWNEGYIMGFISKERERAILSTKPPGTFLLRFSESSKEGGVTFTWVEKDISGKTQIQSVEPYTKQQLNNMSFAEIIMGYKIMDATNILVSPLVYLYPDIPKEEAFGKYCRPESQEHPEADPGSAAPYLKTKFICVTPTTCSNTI

**Q.** What does the source list for `Cn1cnnc1C1(O)CN(C(=O)[C@@H]2CC[C@@H]3CCC[C@H](NC(=O)c4cc5cc(C(F)(F)P(=O)(O)O)ccc5s4)C(=O)N32)C1` [Compound 807, (difluoro(2-(((3S,6S,9aS)-3-(3-hydroxy-3-(4-methyl-4H-1,2,4-triazol-3-yl)azetidine-1-carbonyl)-5-oxooctahydro-1H-pyrrolo[1,2-a]azepin-6-yl)carbamoyl)benzo [b]thiophen-5-yl)methyl) phosphonic acid]?
**A.** IC50 [1]: 100 to 1000 nM; IC50 [2]: 300 to 3000 nM

**Q.** For `CCOC1(c2nncn2C)CN(C(=O)[C@@H]2CC[C@@H]3CCC[C@H](NC(=O)c4cc5cc(C(F)(F)P(=O)(O)O)ccc5s4)C(=O)N32)C1` [Compound 808, ((2-(((3S,6S,9aS)-3-(3-ethoxy-3-(4-methyl-4H-1,2,4-triazol-3-yl)azetidine-1-carbonyl)-5-oxooctahydro-1H-pyrrolo[1,2-a]azepin-6-yl)carbamoyl)benzo [b]thiophen-5-yl)difluoromethyl) phosphonic acid], which IC50 [1] is on record?
**A.** 100 to 1000 nM

**Q.** And the IC50 [2]?
**A.** 3000 to 30000 nM

**Q.** Which results are given for `O=C(N[C@H]1CCC[C@H]2CC[C@@H](C(=O)N3CC(c4nccc(O)n4)C3)N2C1=O)c1cc2cc(C(F)(F)P(=O)(O)O)ccc2s1` [Compound 809, (difluoro(2-(((3S,6S,9aS)-3-(3-(4-hydroxypyrimidin-2-yl)azetidine-1-carbonyl)-5-oxooctahydro-1H-pyrrolo[1,2-a]azepin-6-yl)carbamoyl)benzo [b]thiophen-5-yl)methyl) phosphonic acid]?
**A.** IC50 [1]: < 100 nM; IC50 [2]: 3000 to 30000 nM

**Q.** `N#Cc1cccc(C2CN(C(=O)[C@@H]3CC[C@@H]4CCC[C@H](NC(=O)c5cc6cc(C(F)(F)P(=O)(O)O)ccc6s5)C(=O)N43)C2)n1` [Compound 811, ((2-(((3S,6S,9aS)-3-(3-(6-cyanopyridin-2-yl)azetidine-1-carbonyl)-5-oxooctahydro-1H-pyrrolo[1,2-a]azepin-6-yl)carbamoyl)benzo [b]thiophen-5-yl)difluoromethyl) phosphonic acid] was tested. Which IC50 [1] did it give?
**A.** < 100 nM

**Q.** What about the IC50 [2] of the same molecule?
**A.** 300 to 3000 nM

**Q.** How did the IC50 [1] turn out when `O=C(N[C@H]1CCC[C@H]2CC[C@@H](C(=O)N3CC(c4nccc(C(F)(F)F)n4)C3)N2C1=O)c1cc2cc(C(F)(F)P(=O)(O)O)ccc2s1` [Compound 812, (difluoro(2-(((3S,6S,9aS)-5-oxo-3-(3-(4-(trifluoromethyl)pyrimidin-2-yl)azetidine-1-carbonyl)octahydro-1H-pyrrolo[1,2-a]azepin-6-yl)carbamoyl)benzo [b]thiophen-5-yl)methyl) phosphonic acid] was run?
**A.** 100 to 1000 nM

**Q.** And the IC50 [2]?
**A.** 3000 to 30000 nM

**Q.** For `CC1(C)CC(c2ccccc2)CN1C(=O)[C@@H]1CC[C@@H]2CCCC[C@H](NC(=O)c3cc4cc(C(F)(F)P(=O)(O)O)ccc4s3)C(=O)N21` (stereo partly drawn) [Compound 813, ((2-(((3S,6S,10aS)-3-(2,2-dimethyl-4-phenylpyrrolidine-1-carbonyl)-5-oxodecahydropyrrolo [1,2-a]azocin-6-yl)carbamoyl)benzo [b]thiophen-5-yl)difluoromethyl) phosphonic acid], which IC50 [1] is on record?
**A.** 1000 to 10000 nM

**Q.** And the IC50 [2]?
**A.** 300 to 3000 nM

**Q.** For `CC1(C)C[C@@H](c2ccccc2)CN1C(=O)[C@@H]1CC[C@@H]2CCCC[C@H](NC(=O)c3cc4cc(C(F)(F)P(=O)(O)O)ccc4s3)C(=O)N21` [Compound 814, ((2-(((3S,6S,10aS)-3-((S)-2,2-dimethyl-4-phenylpyrrolidine-1-carbonyl)-5-oxodecahydropyrrolo [1,2-a]azocin-6-yl)carbamoyl)benzo [b]thiophen-5-yl)difluoromethyl) phosphonic acid], which IC50 [1] is on record?
**A.** 1000 to 10000 nM

**Q.** And the IC50 [2]?
**A.** 300 to 3000 nM

**Q.** With `CC1(C)C[C@H](c2ccccc2)CN1C(=O)[C@@H]1CC[C@@H]2CCCC[C@H](NC(=O)c3cc4cc(C(F)(F)P(=O)(O)O)ccc4s3)C(=O)N21` [Compound 815, ((2-(((3S,6S,10aS)-3-((R)-2,2-dimethyl-4-phenylpyrrolidine-1-carbonyl)-5-oxodecahydropyrrolo [1,2-a]azocin-6-yl)carbamoyl)benzo [b]thiophen-5-yl)difluoromethyl) phosphonic acid] as the molecule, how does the IC50 [1] read?
**A.** 1000 to 10000 nM

**Q.** And the IC50 [2]?
**A.** 300 to 3000 nM

**Q.** Which results are given for `O=C(N[C@H]1CCCC[C@H]2CC[C@@H](C(=O)N3CC(c4ccc(=O)[nH]c4)C3)N2C1=O)c1cc2cc(C(F)(F)P(=O)(O)O)ccc2s1` [Compound 816, (difluoro(2-(((3S,6S,10aS)-5-oxo-3-(3-(6-oxo-1,6-dihydropyridin-3-yl)azetidine-1-carbonyl)decahydropyrrolo[1,2-a]azocin-6-yl)carbamoyl)benzo [b]thiophen-5-yl)methyl) phosphonic acid]?
**A.** IC50 [1]: 100 to 1000 nM; IC50 [2]: 3000 to 30000 nM

**Q.** How did the IC50 [1] turn out when `O=C(N[C@H]1CCC[C@H]2CC[C@@H](C(=O)N3CC(c4ncc(C5CC5)cn4)C3)N2C1=O)c1cc2cc(C(F)(F)P(=O)(O)O)ccc2s1` [Compound 817, ((2-(((3S,6S,9aS)-3-(3-(5-cyclopropyl-pyrimidin-2-yl)azetidine-1-carbonyl)-5-oxooctahydro-1H-pyrrolo[1,2-a]azepin-6-yl)carbamoyl)benzo [b]thiophen-5-yl)difluoromethyl) phosphonic acid] was run?
**A.** 1000 to 10000 nM

**Q.** And the IC50 [2]?
**A.** 3000 to 30000 nM

**Q.** Which results are given for `Cc1ccnnc1C1CN(C(=O)[C@@H]2CC[C@@H]3CCC[C@H](NC(=O)c4cc5cc(C(F)(F)P(=O)(O)O)ccc5s4)C(=O)N32)C1` [Compound 818, (difluoro(2-(((3S,6S,9aS)-3-(3-(4-methylpyridazin-3-yl)azetidine-1-carbonyl)-5-oxooctahydro-1H-pyrrolo[1,2-a]azepin-6-yl)carbamoyl)benzo [b]thiophen-5-yl)methyl) phosphonic acid]?
**A.** IC50 [1]: 100 to 1000 nM; IC50 [2]: 3000 to 30000 nM

**Q.** What does the source list for `O=C(N[C@H]1CCC[C@H]2CC[C@@H](C(=O)N3CC(c4cnccc4C(F)F)C3)N2C1=O)c1cc2cc(C(F)(F)P(=O)(O)O)ccc2s1` [Compound 819, ((2-(((3S,6S,9aS)-3-(3-(4-(difluoromethyl)pyridin-3-yl)azetidine-1-carbonyl)-5-oxooctahydro-1H-pyrrolo[1,2-a]azepin-6-yl)carbamoyl)benzo [b]thiophen-5-yl)difluoromethyl) phosphonic acid]?
**A.** IC50 [1]: 100 to 1000 nM; IC50 [2]: 300 to 3000 nM

**Q.** What does the source list for `Cc1ccc(C#N)nc1C1CN(C(=O)[C@@H]2CC[C@@H]3CCC[C@H](NC(=O)c4cc5cc(C(F)(F)P(=O)(O)O)ccc5s4)C(=O)N32)C1` [Compound 820, ((2-(((3S,6S,9aS)-3-(3-(6-cyano-3-methylpyridin-2-yl)azetidine-1-carbonyl)-5-oxooctahydro-1H-pyrrolo[1,2-a]azepin-6-yl)carbamoyl)benzo [b]thiophen-5-yl)difluoromethyl) phosphonic acid]?
**A.** IC50 [1]: 100 to 1000 nM; IC50 [2]: 3000 to 30000 nM

**Q.** How did the IC50 [1] turn out when `O=C(N[C@H]1CCC[C@H]2CC[C@@H](C(=O)N3CC(n4ncc5ccccc54)C3)N2C1=O)c1cc2cc(C(F)(F)P(=O)(O)O)ccc2s1` [Compound 821, ((2-(((3S,6S,9aS)-3-(3-(1H-indazol-1-yl)azetidine-1-carbonyl)-5-oxooctahydro-1H-pyrrolo[1,2-a]azepin-6-yl)carbamoyl)benzo [b]thiophen-5-yl)difluoromethyl) phosphonic acid] was run?
**A.** 100 to 1000 nM

**Q.** And the IC50 [2]?
**A.** 300 to 3000 nM

**Q.** With `COC1(CS(C)(=N)=O)CN(C(=O)[C@@H]2CC[C@@H]3CCC[C@H](NC(=O)c4cc5cc(C(F)(F)P(=O)(O)O)ccc5s4)C(=O)N32)C1` (stereo partly drawn) [Compound 822, (difluoro(2-(((3S,6S,9aS)-3-(3-methoxy-3-((S-methylsulfonimidoy 1)methyl)azetidine-1-carbonyl)-5-oxooctahydro-1H-pyrrolo[1,2-a]azepin-6-yl)carbamoyl)benzo [b]thiophen-5-yl)methyl) phosphonic acid] as the molecule, how does the IC50 [1] read?
**A.** 100 to 1000 nM

**Q.** What about the IC50 [2] of the same molecule?
**A.** 3000 to 30000 nM

**Q.** For `CC(C)OC1(c2nncn2C)CN(C(=O)[C@@H]2CC[C@@H]3CCC[C@H](NC(=O)c4cc5cc(C(F)(F)P(=O)(O)O)ccc5s4)C(=O)N32)C1` [Compound 823, (difluoro(2-(((3S,6S,9aS)-3-(3-isopropoxy-3-(4-methyl-4H-1,2,4-triazol-3-yl)azetidine-1-carbonyl)-5-oxooctahydro-1H-pyrrolo[1,2-a]azepin-6-yl)carbamoyl)benzo [b]thiophen-5-yl)methyl) phosphonic acid], which IC50 [1] is on record?
**A.** 100 to 1000 nM

**Q.** And the IC50 [2]?
**A.** 3000 to 30000 nM

**Q.** How did the IC50 [1] turn out when `N#Cc1ccnc(C2CN(C(=O)[C@@H]3CC[C@@H]4CCC[C@H](NC(=O)c5cc6cc(C(F)(F)P(=O)(O)O)ccc6s5)C(=O)N43)C2)n1` [Compound 824, ((2-(((3S,6S,9aS)-3-(3-(4-cyanopyrimidin-2-yl)azetidine-1-carbonyl)-5-oxooctahydro-1H-pyrrolo[1,2-a]azepin-6-yl)carbamoyl)benzo [b]thiophen-5-yl)difluoromethyl) phosphonic acid] was run?
**A.** < 100 nM

**Q.** And the IC50 [2]?
**A.** 300 to 3000 nM
